Reference: patent US20100173937A1, “USE OF TETRAKIS-QUATERNARY AMMONIUM SALTS AS PAIN MODULATING AGENTS” (University of Kentucky Research Foundation, priority 2008, published 2010)

Assays:
[1] = test system: formalin-induced flinching; assay: rat model of tonic inflammatory pain (the formalin test); type: in vivo; details: intraperitoneal, 3.6-3600 μg/kg, 15 minutes prior to formalin, phase 1 and 2, FIGS. 1 and 2
Procedure: A rat model of tonic inflammatory pain (the formalin test) was used in this study (Wheeler-Aceto and Cowan, 1991). Fifty μl of formalin (5%) was injected subcutaneously (SC) into the dorsal surface of the left hind paw. This procedure typically produces a biphasic behavioral response consisting of flinching, lifting and licking. The first phase (0-10 minutes) results from direct stimulation of nociceptors (nociceptive pain) whereas the second phase (20-60 minutes) is thought to involve central sensitization. Rats (3/dose) were pretreated 15 minutes prior to formalin (SC) injection with ZZ-204G (3.6-3600 μg/kg) administered by the IP route. ZZ-204G is as below:
Saline served as control. Incidences of formalin-induced flinching were counted continuously in 5 minute intervals for 60 minutes. Each rat received only one treatment.

[2] = test system: mechanical hyperalgesia in CCI rats; assay: rat chronic constriction nerve injury (CCI) model of neuropathic pain, paw pressure test; type: in vivo; details: intraperitoneal, 3.6-3600 μg/kg, 15-120 minutes after injection, FIGS. 3 and 4
Procedure: A rat model of neuropathic pain (the chronic constriction nerve injury model; CCI) was used. Unilateral peripheral mononeuropathy was produced on the left hind limb according to the method described by Bennett and Xie (1988). Under pentobarbital anesthesia (40 mg/kg, IP) ligation of the siatic nerve and sham surgery were performed in each rat on the left and right hind paws, respectively. Proximal to the sciatice trifurcation, the nerve (about 7 mm) was freed from adhering tissue and four loose ligatures were tied around the nerve (1 mm apart) using 4.0 chromic catgut, barely constricting the diameter of the nerve. In sham surgery, the right sciatic nerve was exposed using the same procedure, but the nerve was not ligated. The incision was closed in layers with silk thread 3.0. […] No severe motor impairment was observed.
The presence of a decreased threshold to mechanical noxious stimuli (mechanical hyperalgesia) was evaluated by the Randal and Selitto (1957) method (paw pressure test) in CCI rats. The hind paw was placed between a flat surface and a blunt pointer in the Basile Analgesimeter (UGO Basile, Italy) and increasing pressure (32 g/s) was applied to the dorsal side of the paw. Vocalization was used as the end point (vocalization threshold, VT, g). […] Responses were assessed prior to (baseline, taken twice) and at 15, 30, 45, 60 and 120 minutes after injection. […]

Structure (SMILES): C(#Cc1cc(C#CCCC[n+]2cccc(-c3ccccc3)c2)c(C#CCCC[n+]2cccc(-c3ccccc3)c2)cc1C#CCCC[n+]1cccc(-c2ccccc2)c1)CCC[n+]1cccc(-c2ccccc2)c1.[Br-].[Br-].[Br-].[Br-] [ZZ-204G]
- analgesic effect in the rodent formalin tonic inflammatory pain model (formalin-induced flinching) [1]: analgesic effect
- antihyperalgesic effect in the rodent chronic constriction nerve injury model (vocalization threshold, paw pressure test) [2]: antihyperalgesic effect
